This is an account of results in patent US20180263985A1, “MODULATORS OF TOLL-LIKE RECEPTORS FOR THE TREATMENT OF HIV” (Gilead Sciences, Inc., priority 2015, published 2018).

For one test, the system named is NK Cells. The test can be described thus: Immune cell activation in PBMC cultures, flow cytometry: NK cells. In kind it is cell-based, human. The following applies: for NK Cells CD25 Fold / NK Cells CD69 Fold: 2 days, N = 6. On the procedure:
(§1) TLR8 is expressed on multiple immune cell subsets. To determine how treatment with a TLR8 modulating compound affects activation of distinct cell populations, PBMCs were purified from HIV-1 infected subjects on cART, as described in Example 121 (anonymized participant IDs 184, 185, 188, 189, 190, and 191). […] After incubation, PBMCs were harvested and stained with antibodies conjugated to specific fluorophores (BD Biosciences) to delineate immune cell subsets: CD4 T cells (CD3+CD4+CD8−), CD8 T cells (CD3+CD8+CD4−), NK cells (CD3−CD56+CD16+), monocytes (CD3−CD14+), B cells (CD3−CD19+), and peripheral dendritic cells (DCs), defined as positive for HLA-DR and negative for a panel of markers: CD3, CD14, CD16, CD19, CD20, CD56 (Lin-1 lineage panel, BD Biosciences).
(§2) Additional markers of activation, maturation, and effector function were included for cell subsets, as follows: CD4 and CD8 T cells (CD25, CD38, CD69, IFN-γ, granzyme B, perforin, TNF-α), NK cells (CD25, CD69, IFN-γ), monocytes (CD11c, CD16, CD80, CD86, CD163, TNF-α), B cells (CD40, CD69, CD80, CD86), and DC (CD11c, CD69, CD80, CD86, CD123, and CD163). Cells were stained for surface markers (CD3, CD4, CD8, CD11c, CD14, CD16, CD25, CD69, CD80, CD86, CD163), washed, treated with fixation and permeabilization buffer (eBioscience), and stained for intracellular markers (IFN-γ, granzyme B, perforin, TNF-α). Cells were evaluated by flow cytometry on a LSR Fortessa (BD Biosciences), and data was analyzed with FlowJo software (TreeStar).
(§3) Data are expressed as geometric mean percentage (%) and as geometric mean fold-activation (Fold) for each marker and for each PBMC subset obtained from 4 or 6 subjects, as indicated. Fold activation is calculated as a ratio of the % positive for each marker for each PBMC subset at the indicated concentration of the compound of Example 15 relative to % positive for DMSO treated samples. Fold activations that are 1.5 are in bold.
In general terms: In flow cytometry, cells or beads pass a laser one at a time.

A further test relates to DCs. Briefly: Immune cell activation in PBMC cultures, flow cytometry: DCs. The following applies: for DCs CD80 Fold / DCs CD69 Fold: 2 days, N = 4. In kind it is cell-based, human. The protocol:
as §1, §2, §3

Take `CCCC[C@H](CO)Nc1nc(N)nc2cccnc12` [Example 15]: the “NK Cells CD25 Fold” value with NK Cells (10 nM vs DMSO) was 0.4 fold; in the test with NK Cells (100 nM vs DMSO), 1.6 fold; with NK Cells (3000 nM vs DMSO) it was 9.6 fold. Further, the “NK Cells CD69 Fold” value was 0.4 fold in the test with NK Cells (10 nM vs DMSO), 0.6 fold with NK Cells (100 nM vs DMSO), 12.4 fold in the test on NK Cells (1000 nM vs DMSO) and 11.8 fold in the test with NK Cells (3000 nM vs DMSO). Besides, the “Concentration of maximal activation of NK cells” value in the test with NK Cells (increased expression of CD25 and CD69) amounted to 1000 nM. Moreover, the “DCs CD80 Fold” value is listed as 1.8 fold with DCs (10 nM vs DMSO), 2.4 fold in the test with DCs (100 nM vs DMSO), 2.9 fold in the test on DCs (1000 nM vs DMSO) and 2.0 fold with DCs (3000 nM vs DMSO). The entries for the “DCs CD69 Fold” value in the test with DCs (100 nM vs DMSO), in the test on DCs (1000 nM vs DMSO) and in the test on DCs (3000 nM vs DMSO) were 0.4 fold, 3.3 fold and 8.9 fold, respectively. Further, the entries for the “Concentration of maximal activation of DCs” value in the test on DCs (increased expression of CD69) and in the test on DCs (increased expression of CD80) were 3000 nM and 1000 nM, respectively.
